Experimental findings from patent publication US20260000655A1, “PHARMACEUTICAL COMPOSITION FOR USE IN PREVENTION OR TREATMENT OF LIFESTYLE-RELATED DISEASE” (priority 2022, published 2026) are described below.

One data set relates to AMPK. Kind of data set: Activation of p-AMPK in mouse tissue (Western blotting). The data set is classed as in vivo. The method, then:
High-fat diet-induced obesity model mice were prepared in the same manner as in Example 7. Then, HPH-15 (10 mg/kg or 100 mg/kg, […]) dissolved in olive oil or metformin (300 mg/kg, […]) was orally administered once a day for 28 days. Olive oil alone was administered as a control. After 28 days of administration of each, equal amounts (50 mg) of tissue pieces were collected from the liver, subcutaneous fat, and muscle tissues of the high-fat diet-induced obesity model mice, transferred to 1.5 mL Eppendorf tubes, and washed twice with PBS. After washing, the tissue pieces were transferred to BIOMASHER II, […] of RIPA buffer was added, and the tissue pieces were homogenized on ice. After homogenization, the tissue pieces were centrifuged (10,000 rpm, 4° C., 5 min) and the supernatant was obtained as a protein solution. The concentration of the proteins thus obtained was corrected based on the protein concentration measured by the BCA method using bicinchoninic acid (BCA), thereby preparing samples for Western blotting. Western blotting was performed in the same manner as in Example 1 described above, and the amount of p-AMPK/AMPK was calculated.
A general note: A western blot detects proteins with antibodies after separation by electrophoresis.

Data set [1] can be described thus: Body weight during administration in mouse. The data set is classed as in vivo. Conditions: HPH-15 10 mg/kg or 100 mg/kg orally once a day for 28 days; high-fat diet. The method, then: (§1) Four-week-old […] mice (CLEA Japan, Inc.) were fed a high-fat diet HFD (CLEA Japan, Inc.) for two months to prepare high-fat diet-induced obesity model mice. Then, HPH-15 (10 mg/kg or 100 mg/kg, […]) dissolved in olive oil (Kenei Pharmaceutical Co., Ltd.) or metformin (300 mg/kg, […]) was orally administered once a day for 28 days. Olive oil alone was administered as a control. Body weight, random blood glucose levels, and fasting blood glucose levels were measured every 7 days using a blood glucose meter Glutest Aqua (Sanwa Kagaku Kenkyusho Co., Ltd.). Fasting blood glucose levels were measured after 12-hour fasting. Note that, during the drug administration period, the mice were fed the high-fat diet HFD. The results of random blood glucose levels (mg/dl) are shown in FIG. 7A, and the results of fasting blood glucose levels (mg/dl) are shown in FIG. 7B.

Data set [2] has as its system high-fat diet-induced obesity model mice. Kind of data set: Pyruvic acid loading test in mouse. The data set is classed as in vivo. Conditions: HPH-15 10 mg/kg or 100 mg/kg orally, 28 days; pyruvic acid 2 g/kg intraperitoneally; compared to olive oil. On the procedure: The effect of HPH-15 on the changes in blood glucose levels in the presence of pyruvic acid involving in gluconeogenesis was examined using mice.
High-fat diet-induced obesity model mice were prepared in the same manner as in Example 7. Then, HPH-15 (10 mg/kg or 100 mg/kg, […]) dissolved in olive oil or metformin (300 mg/kg, […]) was orally administered once a day for 28 days. Olive oil alone was administered as a control. After 28 days of administration of each, pyruvic acid was intraperitoneally administered (2 g/kg) to the high-fat diet-induced obesity model mice, and blood glucose levels (mg/dl) were measured at 0, 15, 30, 60, 90, and 120 minutes after administration using a blood glucose meter Glutest Aqua (Sanwa Kagaku Kenkyusho Co., Ltd.).

Data set [3] shares this test system. Description: Blood glucose lowering effect in mouse. In kind it is in vivo. Conditions: HPH-15 10 mg/kg or 100 mg/kg orally once a day for 28 days, compared with metformin 300 mg/kg. The method, then:
In Example 7, mice were used instead of the cells, which were used up to Example 6, to examine the blood glucose lowering effect of HPH-15.
as §1

Data set [4] has as its system myotube cell model L6-GLUT4myc, liver cell model HepG2 cells, adipocyte model 3T3-L1. Kind of data set: Glucose uptake (2-deoxyglucose) into cells. The data set is classed as cell-based, rat, human, mouse. Conditions: HPH-15 10 μM or 50 μM vs metformin 2 mM; 24 hours; 2-deoxyglucose 2 mM, 20 minutes. On the procedure: The uptake of glucose into cells by HPH-15 was examined using the myotube cell model L6-GLUT4myc, the liver cell model HepG2 cells, and the adipocyte model 3T3-L1.
The myotube cell model L6-GLUT4myc, the liver cell model HepG2 cells, and the adipocyte model 3T3-L1 used in Example 1 were each seeded onto a 24-well plate (1×10^5 cells/well, […] of culture liquid) and cultured overnight. Then, a DMSO solution (1%) containing HPH-15 (final concentration: 10 μM or 50 μM), metformin (final concentration: 2 mM), or insulin (final concentration: 100 nM) was added to the medium, and the cells were further cultured for 24 hours. As a control, only DMSO solution (1%) was added, and the cells were cultured for 24 hours in the same manner. Next, the cells were washed with KRPH buffer (containing 2% BSA) and cultured in the presence of 2-deoxyglucose (final concentration: 2 mM, FUJIFILM Wako Pure Chemical Corp.) for 20 minutes at 37° C. The uptake of 2-deoxyglucose was stopped by washing the cells with cold PBS, and the amount of glucose taken up into the cells was measured using a Glucose Cellular Uptake Measurement Kit (Cosmo Bio).

The test system of a further data set is adipocyte model 3T3-L1. Description: Cytotoxicity (MTT reagent). In kind it is cell-based, mouse. Conditions: HPH-15 1 μM, 10 μM or 50 μM, 24 hours. On the procedure:
It was examined whether using HPH-15 as a drug caused any cytotoxicity.
The myotube cell model L6-GLUT4myc, the liver cell model HepG2 cells, and the adipocyte model 3T3-L1 used in Example 1 were each seeded onto a 24-well plate (1×10^5 cells/well, […] of culture liquid) and cultured overnight. Then, a DMSO solution (1%) containing HPH-15 (final concentration: 1 μM, 10 μM or 50 μM) was added to the medium, and the cells were further cultured for 24 hours. As a control, only DMSO solution (1%) was added, and the cells were cultured for 24 hours in the same manner. Next, […] of MTT reagent (3-(4,5-dimethyl-2-thiazolyl)-2,5-diphenyl-2H-tetrazolium bromide: 1.1 mg/mL: Dojindo Laboratories) was added to each well, and the cells were further cultured for 4 hours. After collecting the precipitated crystals, the supernatant was removed and DMSO ([…]) was added to completely dissolve the crystals. Cytotoxicity was evaluated by measuring the absorbance (550 nm) of the solution and determining the number of viable cells.

Setting [5] is: HPH-15 10 or 100 mg/kg orally 28 days.

Take `CC(C)(C)SCCNC(=S)c1cccc(C(=S)NCCSC(C)(C)C)n1` [HPH-15]: in the data set on AMPK (setting [5]), the “p-AMPK/AMPK in the liver” value was “increased”, the “p-AMPK/AMPK in the muscle” value is reported as “increased” and the “p-AMPK/AMPK in the subcutaneous fat” value was “increased”. The “AMPK activation in the subcutaneous fat as compared to metformin” value in the data set on AMPK (HPH-15 10 or 100 mg/kg vs metformin 300 mg/kg, orally 28 days) is recorded as “twice or more as compared to metformin”. In addition, the “changes in body weight during the test period” value in data set [1] was “no significant differences were observed”. For the same compound, the “blood glucose levels after pyruvic acid loading” value in data set [2] is listed as “significantly lowered”. In data set [3] (12-hour fasting), the “fasting blood glucose levels” value is reported as “had the effect of lowering”. Moreover, the “random blood glucose levels” value in data set [3] is reported as “had the effect of lowering”. The glucose uptake amount entry in data set [4] is “increased the glucose uptake amount to the same extent as or to a greater extent than metformin”. In the data set with adipocyte model 3T3-L1, the “cytotoxicity (number of viable cells)” value is “no cytotoxicity was confirmed”.
